The source of these data is the supplement of paper PMC4862054.

Molecules are shown by their SMILES.

What all share (test): normalised viability (% of control), CellTiter-Blue; higher = more viable cells (about 100 = DMSO control)
What all share (settings): incubation time: 72 h
On the technique in general: The colour change of resazurin is a common sign of viable cells or microbes.

Experiment [1] deals with CAL-148. The method, then: (§1)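 DSRT, CellTiter-Blue viability, 72 h incubation. Signal is normalised to DMSO and benzethonium chloride controls. Value is the normalised response at dose 6.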
Experiment [2] has as its system CAL-51. On the procedure: as §1
The test system of experiment [3] is CAL-85-1. The method, then:
as §1

Experiment [4] has as its system DU-4475. The method, then:
as §1

Experiment [5] has as its system HDQ-P1. The method, then:
as §1

Experiment [6] concerns MDA-MB-453. The method, then:
as §1

Experiment [7] relates to CAL-148. The method, then:
(§2)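 DSRT, CellTiter-Blue viability, 72 h incubation. Signal is normalised to DMSO and benzethonium chloride controls. Value is the normalised response at dose 7.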
This is another data set of the same source.

Experiment [8] relates to CAL-51. The method, then: as §2
This is another data set of the same source.

The test system of experiment [9] is CAL-85-1. On the procedure:
as §2
This is another data set of the same source.

Experiment [10] deals with DU-4475. The method, then:
as §2
The source holds these as a separate data set.

Experiment [11] has as its system HDQ-P1. The method, then: as §2
The source holds these as a separate data set.

Experiment [12] relates to MDA-MB-453. The method, then:
as §2
This is another data set of the same source.

`CCS(=O)(=O)c1cccc(-c2cc(C(=O)NC3CCN(C)CC3)c(C)c3[nH]c4ncc(C)cc4c23)c1` [TAK-901] (30 nM): the normalised viability in the experiment on CAL-148 [1] was 42.2%; in the experiment with CAL-51 [2], 78.1%; in the experiment on CAL-85-1 [3] it was 79.4%; in the experiment with DU-4475 [4] it was 90.6%; in the experiment with HDQ-P1 [5], 96.5%; with MDA-MB-453 [6], 55.5%.
With `CC(C)C[C@H](NC(=O)[C@H](Cc1ccccc1)NC(=O)c1cnccn1)B(O)O` [Bortezomib] (30 nM), the normalised viability with CAL-148 [1] was 41%; in the experiment on CAL-51 [2], 67.6%; in the experiment on CAL-85-1 [3], 7.63%; with DU-4475 [4] it was 9.69%; with HDQ-P1 [5], 2.53%; in the experiment with MDA-MB-453 [6], 24%.
Turning to `CC[C@@]1(O)C(=O)OCc2c1cc1n(c2=O)Cc2cc3ccccc3nc2-1` [Camptothecin] (500 nM), the normalised viability in the experiment with CAL-148 [7] was 8%; with CAL-51 [8] it was 5.8%; with CAL-85-1 [9], 40%; in the experiment with DU-4475 [10] it was 10.7%; in the experiment with HDQ-P1 [11], 50.3%; with MDA-MB-453 [12], 23.7%.
`c1ccc(C2CN3CCSC3=N2)cc1` (centres undefined) [Tetramisole] (1000 nM): the normalised viability turned out to be 131% with CAL-148 [7]; 90.2% with CAL-51 [8]; 98.7% in the experiment with CAL-85-1 [9]; 74% with DU-4475 [10]; 109% in the experiment with HDQ-P1 [11]; 108% with MDA-MB-453 [12].
Turning to `O=c1[nH]c(=O)n([C@H]2C[C@H](O)[C@@H](CO)O2)cc1F` [Floxuridine] (300 nM), the normalised viability in the experiment with CAL-148 [1] was 55.2%; in the experiment on CAL-51 [2], 35%; in the experiment on CAL-85-1 [3], 58.7%; in the experiment on DU-4475 [4], 76%; in the experiment on HDQ-P1 [5], 78.8%; with MDA-MB-453 [6], 90.8%.
As to `CC(=O)O[C@H]1C(=O)[C@@]2(C)[C@H]([C@H](OC(=O)c3ccccc3)[C@]3(O)C[C@H](OC(=O)[C@H](O)[C@@H](NC(=O)c4ccccc4)c4ccccc4)C(C)=C1C3(C)C)[C@]1(OC(C)=O)CO[C@@H]1C[C@@H]2O` [Paclitaxel] (30 nM), the normalised viability in the experiment on CAL-148 [1] stood at 20.8%; in the experiment on CAL-51 [2] it was 38.8%; in the experiment on CAL-85-1 [3], 32.6%; in the experiment on DU-4475 [4], 39.6%; with HDQ-P1 [5], 33.7%; with MDA-MB-453 [6], 26.1%.
On to `CCOc1cc2ncc(C#N)c(Nc3ccc(OCc4ccccn4)c(Cl)c3)c2cc1NC(=O)/C=C/CN(C)C` [Neratinib] (30 nM), for which the normalised viability amounted to 85.9% in the experiment with CAL-148 [1]; 96% in the experiment with CAL-51 [2]; 107% with CAL-85-1 [3]; 100% in the experiment on DU-4475 [4]; 94.3% with HDQ-P1 [5]; 81.2% in the experiment on MDA-MB-453 [6].
For `COc1ccc(C2=N[C@@H](c3ccc(Cl)cc3)[C@@H](c3ccc(Cl)cc3)N2C(=O)N2CCNC(=O)C2)c(OC(C)C)c1` [Nutlin-3] (300 nM), the normalised viability with CAL-148 [1] stood at 96.3%; with CAL-51 [2], 99%; in the experiment on CAL-85-1 [3], 89.9%; with DU-4475 [4], 84.8%; with HDQ-P1 [5], 66.2%; with MDA-MB-453 [6], 91.2%.
In the case of `COC1=CC(c2cc3ccccc3[nH]2)=N/C1=C\c1[nH]c(C)cc1C` [Obatoclax] (300 nM), the normalised viability stood at 91.1% in the experiment on CAL-148 [1]; 95.7% in the experiment on CAL-51 [2]; 66.2% in the experiment on CAL-85-1 [3]; 75% in the experiment on DU-4475 [4]; 40.7% in the experiment on HDQ-P1 [5]; 72.2% in the experiment with MDA-MB-453 [6].
As for `COC(=O)C[C@](O)(CCCC(C)(C)O)C(=O)O[C@@H]1C(OC)=C[C@]23CCCN2CCc2cc4c(cc2[C@H]13)OCO4` [Omacetaxine mepesuccinate] (300 nM), the normalised viability in the experiment with CAL-148 [1] worked out at 13.5%; in the experiment with CAL-51 [2] it was 7.35%; in the experiment with CAL-85-1 [3], 4.19%; in the experiment on DU-4475 [4], 9.29%; with HDQ-P1 [5] it was 10.2%; with MDA-MB-453 [6] it was 20.1%.
Regarding `O=c1[nH]cc(F)c(=O)[nH]1` [Fluorouracil] (300 nM), the normalised viability amounted to 96.7% with CAL-148 [1]; 101% in the experiment with CAL-51 [2]; 87.2% in the experiment on CAL-85-1 [3]; 102% in the experiment with DU-4475 [4]; 87.2% in the experiment on HDQ-P1 [5]; 85.7% in the experiment with MDA-MB-453 [6].
Turning to `COc1c(C)cnc(Cn2cnc3c(Cl)nc(N)nc32)c1C` [BIIB021] (300 nM), the normalised viability is 29.5% with CAL-148 [1]; 57.6% in the experiment with CAL-51 [2]; 56.8% with CAL-85-1 [3]; 0.39% with DU-4475 [4]; 60.8% in the experiment with HDQ-P1 [5]; 17.3% with MDA-MB-453 [6].
For the compound `c1ccc(C2CN3CCSC3=N2)cc1` (centres undefined) [Tetramisole] (300 nM), the normalised viability in the experiment with CAL-148 [1] came to 102%; with CAL-51 [2], 93.3%; in the experiment with CAL-85-1 [3] it was 102%; in the experiment on DU-4475 [4], 98.6%; in the experiment on HDQ-P1 [5] it was 129%; with MDA-MB-453 [6], 103%.
With `CCCC(CCC)C(=O)O` [Valproic acid] (300 nM), the normalised viability stood at 103% with CAL-148 [1]; 103% with CAL-51 [2]; 90% in the experiment with CAL-85-1 [3]; 83.7% in the experiment on DU-4475 [4]; 112% in the experiment on HDQ-P1 [5]; 103% in the experiment with MDA-MB-453 [6].
